Results reported in patent US20090149531A1, “CHEMICAL COMPOSITION DERIVED FROM P-HYDROXYPHENYL PROPIONIC ACID FOR THE TREATMENT OF PSORIASIS” (APOTEKNOS PARA LA PIEL, S.L., priority 2007, published 2009).
“And” between values parts separate entries of the source, which are not always exact repeats. Equal entries are not always repeated.

Test system: Salmonella typhimurium TA98
Assay: Ames test without external metabolisation, TA98
Assay type: cell-based
Conditions: no metabolic activation; for Colonies per plate: individual plates 1-4, A; for Colonies per plate / Colonies per plate, Mean: 48 hours; for Mutagenic Ind,: relative to H+/B+
Description: The mutagenic activity of compound A was evaluated using the Ames test without external metabolisation. The Ames test is based on the use of bacterial strains to detect mutations in the DNA in vitro using bacterial strains that make it possible to detect types of damage to the genome.
Bacteria of 4 strains of Salmonella typhimurium that are internationally recommended for this test, TA1535, TA1537, TA98 and TA100, were used. The test was carried out according to highly standardised protocols. […] The test was carried out without external metabolic activation. The plates were incubated at 37° C. and the reverting colonies were counted after 48 hours.

C=C1C(=O)O[C@H](CCc2ccc(OC)cc2)[C@@H]1C [Compound A]
Colonies per plate (Comp. A 10 μg/ml): 9 and 6 and 12 and 14
Colonies per plate, Mean (Comp. A 10 μg/ml): 10.25
Mutagenic Ind, (Comp. A 10 μg/ml): 1.079
Colonies per plate (Comp. A 100 μg/ml): 15 and 12 (2×) and 8
Colonies per plate, Mean (Comp. A 100 μg/ml): 11.75
Mutagenic Ind, (Comp. A 100 μg/ml): 1.237
Colonies per plate (Comp. A 1 mg/ml): 8 and 4 and 6 and 17
Colonies per plate, Mean (Comp. A 1 mg/ml): 8.75
Mutagenic Ind, (Comp. A 1 mg/ml): 0.9211
Ames test result (mutagenic effects) (TA98, concentrations evaluated 10 μg/ml to 1 mg/ml): negative
